Measurements reported in patent US4937346A, “Phenyl-azacykloalkanes” (Carlsson; Per Arvid Emil, priority 1979, dated 1990).

Experiments:
[1] = test system: postsynaptic DA receptors; experiment: Antagonism of the reserpine-induced "neuroleptic syndrome" in the rat; type: in vivo; settings: s.c., different doses, not even at nearly lethal doses
From the text: 1. Antagonism of the reserpine-induced "neuroleptic syndrome" in the rat
Depletion of the monoamine stores with reserpine brings about a "neuroleptic syndrome" characterized by hypomotility, catalepsy, muscle rigidity, hunch-backed posture as well as a number of other central and peripheral signs of monoamine depletion. This syndrome can be reversed by the administration of drugs that stimulate postsynaptic DA receptors directly or indirectly, e.g. apomorphine, L-Dopa.
Rats (150-300 g) pretreated with reserpine (10 mg/kg i.p., 6 h before) were given compound 4 subcutaneously at different doses.

DA autoreceptors = experiment: Turning behavior in rats with acute unistriatal KCl lesion; type: in vivo, rat; design: key to Catalepsy: + present; - absent; settings: for Apomorphine-induced turning: apomorphine 1.0 mg/kg s.c. 1 h after
From the text: 5. Turning behavior in rats with acute unistriatal lesion.
In animals with an acute unilateral KCl-lesion (1μ1 25% KCl lesioned side, 1μ1 20% NaCl control side, administered through previously implanted "guide cannulaes") of the striatum, compensatory counterbalancing adjustments in the intact contralateral striatum are brought about and therefore no appreciable asymmetry in body posture or torsion is observed. Disturbances in the balance produces, depending on the point of attack, ipsi- or alternatively contralateral turning. In this model postsynaptically active DA agonists (e.g. apomorphine, high dosage) elicit ipsilateral turning and rotatory behavior whereas DA antagonists (e.g. haloperidol) cause contralateral turning. Consequently it could be expected that agents acting exclusively on DA autoreceptors would produce contralateral turning in the lesioned animals.

[2] = test system: central postsynaptic DA-receptor; experiment: Locomotor activity in reserpine-pretreated rats, comparison of compound 4 with two known dopaminergic agonists; type: in vivo, rat
Method: Rats (150-300 g) pretreated with reserpine (10 mg/ kg i.p., 6 h before) were given either phys. saline, compound 4 (100 μmol/kg), N-n-propyl-3-(3,4-dihydroxyphenyl)piperidine (100 μmol/kg) or apomorphine ([…]) subcutaneously and the locomotor activity (accumulated counts 0-60 min.) was quantified by means of Motron boxes (see under 4 above).

In the case of `Br.CCCN1CCCC(c2cccc(O)c2)C1` (racemic) [Compound 4, N-n-propyl-3-(3-hydroxyphenyl)piperidine hydrobromide], the “antagonism of the reserpine-induced syndrome” value [1] is reported as “no antagonism of the reserpine-induced syndrome was observed”, the Catalepsy (DA autoreceptors; 1 mg/kg s.c.) is reported as “-” and the Turning contralateral (DA autoreceptors; 1 mg/kg s.c., 2 animals) is reported as 2. For the same compound, the Turning ipsilateral (DA autoreceptors; 1 mg/kg s.c., 2 animals) was 0, the Catalepsy (DA autoreceptors; 2 mg/kg s.c.) was “-” and the Duration of turning (DA autoreceptors; 2 mg/kg s.c.) was > 2 h. For the same compound, the Turning contralateral (DA autoreceptors; 2 mg/kg s.c., 4 animals) was 4, the Turning ipsilateral (DA autoreceptors; 2 mg/kg s.c., 4 animals) was 0 and the Apomorphine-induced turning (DA autoreceptors; 2 mg/kg s.c.) was “Ipsi 4/4”. The Catalepsy (DA autoreceptors; 4 mg/kg s.c.) was “-”, the Turning contralateral (DA autoreceptors; 4 mg/kg s.c., 2 animals) was 2 and the Turning ipsilateral (DA autoreceptors; 4 mg/kg s.c., 2 animals) was 0. The Catalepsy (DA autoreceptors; 8 mg/kg s.c.) was “-”, the Duration of turning (DA autoreceptors; 8 mg/kg s.c.) was > 4 h and the Turning contralateral (DA autoreceptors; 8 mg/kg s.c., 4 animals) was 4. For the same compound, the Turning ipsilateral (DA autoreceptors; 8 mg/kg s.c., 4 animals) was 0, the Apomorphine-induced turning (DA autoreceptors; 8 mg/kg s.c.) was “Ipsi 4/4” and the Catalepsy (DA autoreceptors; 32 mg/kg s.c.) was “+”. For the same compound, the Duration of turning (DA autoreceptors; 32 mg/kg s.c.) was > 4 h, the Turning contralateral (DA autoreceptors; 32 mg/kg s.c., 8 animals) was 8 and the Turning ipsilateral (DA autoreceptors; 32 mg/kg s.c., 8 animals) was 0. The Apomorphine-induced turning (DA autoreceptors; 32 mg/kg s.c.) was “Ipsi 8/8”, the “effect on apomorphine ipsilateral turning and rotatory response” value (DA autoreceptors; apomorphine 1.0 mg/kg s.c., pretreatment with compound 4) was “not affected by pretreatment with compound 4” and the turning direction (DA autoreceptors; s.c., each dose tested) was “made the animals turn to the side contralateral to the lesion”. The overall appearance (DA autoreceptors; s.c., lesioned rats) was “indicative of a sedative action”, the Motor activity ([2]; 0-60 min postinj., 100 μmol/kg s.c.) was 55 ± 4 acc. counts and the “central postsynaptic DA-receptor stimulation / motor response” value ([2]; s.c.) was “failed to elicit a motor response that differed more than slightly from control values”.
